Data taken from PMC12301332, “Biased antagonism of a series of bicyclic CXCR2 intracellular allosteric modulators” (Frontiers in Pharmacology, 2025).

Columns and labels:
CXCR2 [1] = target: T1, CXCR2 (Homo sapiens, UniProt P25025); parameters: method as in Van Hoof et al., 2022; details: ref Van Hoof et al., 2022; cited from earlier work
T1 construct: expressed in transfected cells
T1 sequence (P25025 1-360): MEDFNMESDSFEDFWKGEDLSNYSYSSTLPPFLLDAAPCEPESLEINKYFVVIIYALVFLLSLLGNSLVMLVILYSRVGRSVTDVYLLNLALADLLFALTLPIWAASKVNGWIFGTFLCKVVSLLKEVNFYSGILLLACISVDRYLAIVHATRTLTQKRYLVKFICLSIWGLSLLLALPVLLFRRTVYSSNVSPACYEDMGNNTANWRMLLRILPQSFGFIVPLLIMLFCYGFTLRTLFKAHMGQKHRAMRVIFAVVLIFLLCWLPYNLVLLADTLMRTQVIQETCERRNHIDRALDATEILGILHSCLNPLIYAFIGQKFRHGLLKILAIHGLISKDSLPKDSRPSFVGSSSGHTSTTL

CXCR2 [2] = target: T1, CXCR2; test: NanoBRET-based G protein activation inhibition assay (REGA-SIGN Gαi1 dissociation) in HEK293A.CXCR2 cells; assay type: cell-based; details: n = 3; for IC50: mean; for Imax Gαi1 (maximum observed inhibitory effect): normalized to Imax of navarixin = 100%
Protocol: Cells were trypsinized and resuspended at 3 × 10^5 cell/mL in the growth medium, whereafter they were incubated for 2 hours at RT. Cells were transfected in suspension using FuGENE® HD Transfection Reagent at a 3:1 reagent to DNA ratio in Opti-MEMTM I Reduced-Serum Medium, with the final DNA concentration of 1 μg/μL. The transfection mixture was incubated for 10 min at RT before adding it to the cell suspension. Transfected cells were seeded at 3.0 × 10^4 cells/well in a white, clear, flat-bottom 96-well plate coated with 100 μg/mL poly-D-lysin ([…], Sigma Aldrich) and incubated for 48 h at 37°C and 5% CO2. […] (2023)]. Following the 48-h incubation period, cells were washed with the assay buffer. Compounds were serially diluted in 1:500 Nano-Glo® Vivazine^TM working solution (#N2581, Promega), and 90 μL of compound/Vivazine mix was added, followed by incubation for 45 min at 37°C and 5% CO2. Plates were transferred to the FLIPR Penta system (Molecular Devices) at 37°C, and all steps onward are automated and performed by the FLIPR Penta system. After a 10-min equilibration period, the baseline BRET signal was determined by five consecutive reads followed by automatic administration of 10 μL of 10× ligand (Table 1) to the cell plate. Changes in the BRET signal was measured for 10 min, with each read spaced by 2.5 s. […] BRET ratios were extracted from ScreenWorks software (Molecular Devices) and represent the ratio between the acceptor emission of […]2 or mNG (G protein or β-arrestin recruitment, respectively) and NLuc donor emission. The basal BRET ratio was defined as the average BRET ratio of the five consecutive readings preceding ligand addition. Changes in BRET values post ligand administration (ΔBRET) were calculated for each well as a percentage difference to the previously defined basal BRET ratio. Average ΔBRET values were baseline corrected by subtracting the average negative control BRET ratio (unstimulated condition). […] AUCs were normalized to the positive control (stimulated condition); whereafter, dose-response curves were fitted to log (inhibitor) vs response (three parameters) in GraphPad 10.2.0 (GraphPad Software). […] Calculation 1: calculation of the BRET signal. • 1. […] NC correctedΔBRET=Δ[…]. • 4. a. Neg AUC of NC correctedΔBRET=Gα activation read out. b. Pos AUC of NC correctedΔBRET=β-arrestin recruitment.

| Compound | calcium mobilization antagonism (CXCR2 [1]) | IC50 (CXCR2 [2]; CXCL1 at EC80) [µM] | IC50 (CXCR2 [2]; CXCL2 at EC80) [µM] | Imax Gαi1 (maximum observed inhibitory effect) (CXCR2 [2]; CXCL2 at EC80) [%] | IC50 (CXCR2 [2]; CXCL3 at EC80) [µM] | IC50 (CXCR2 [2]; CXCL5 at EC80) [µM] | Imax Gαi1 (maximum observed inhibitory effect) (CXCR2 [2]; CXCL5 at EC80) [%] | IC50 (CXCR2 [2]; CXCL6 at EC80) [µM] | IC50 (CXCR2 [2]; CXCL7 at EC80) [µM] | IC50 (CXCR2 [2]; CXCL8 at EC80) [µM] | Imax Gαi1 (maximum observed inhibitory effect) (CXCR2 [2]; CXCL1 at EC80) [%] | Imax Gαi1 (maximum observed inhibitory effect) (CXCR2 [2]; CXCL3 at EC80) [%] | Imax Gαi1 (maximum observed inhibitory effect) (CXCR2 [2]; CXCL6 at EC80) [%] | Imax Gαi1 (maximum observed inhibitory effect) (CXCR2 [2]; CXCL7 at EC80) [%] | Imax Gαi1 (maximum observed inhibitory effect) (CXCR2 [2]; CXCL8 at EC80) [%] |
| --- | --- | --- | --- | --- | --- | --- | --- | --- | --- | --- | --- | --- | --- | --- | --- |
| CC(CO)Nc1nc(SCc2cccc(F)c2F)nc2cnccc12 (stereo not drawn) [MVH-3] | potent | > 15 | 6.24 ± 1.15 | 100 | > 15 | 10.2 ± 6.52 | 93.7 ± 5.53 | 7.53 ± 1.74 | 10.9 ± 9.58 | > 15 |  |  |  |  |  |
| CC(CO)Nc1nc(SCc2cccc(F)c2F)nc2oncc12 (stereo not drawn) [MVH-24] | most potent | 2.08 ± 0.42 | 1.21 ± 0.63 | 100 | 14.8 ± 10.1 | 1.43 ± 0.71 | 98.52 ± 2.04 | 1.06 ± 0.75 | 0.75 ± 0.26 | 2.49 ± 1.24 | 96.47 ± 3.69 | 100 | 100 | 94.94 ± 3.57 | 100 |
| CC(CCO)Nc1nc(SCc2cccc(F)c2F)nc2[nH]nnc12 (stereo not drawn) [MVH-33] |  | > 15 | > 15 | <50 | > 15 | 13.1 ± 4.76 | 100 | > 15 | 10.1 ± 4.8 | > 15 | <50 | <50 | <50 | 98.43 ± 2.62 | <50 |
